Data taken from patent US6297024A, “Methods for assessing complement activation” (Cell Activation, Inc., priority 1999, dated 2001).
“Also recorded” adds a separate entry of the source.

Legend:
[1] = system: in vitro complement activation (C3 and C4 conversion; MASP-2); assay: in vitro complement activation (C3a and C4a by RIA) in blood or plasma of normal donors; type: biochemical, human; settings: for MASP activity: inferred from C4a generation in EDTA blood (FIG. 2); for C4 conversion in blood, additive combined with EDTA: additive plus EDTA, 60 min at rt (FIG. 2); for C4 conversion (C4a generation) in whole blood / C3a generation in whole blood: no EDTA; for C4 conversion (C4a generation) in whole blood: over 60 min at rt (FIG. 2); for C3a generation in whole blood: 0.15 mM Benzamidine, 20 μM Trasylol or 0.1 mg/ml Futhan, 0 time vs 60 min at rt (FIG. 2)
Description: (§1) Blood samples were either drawn into EDTA tubes (Venoject, Terumo Corp. Elkston, Md.) or Futhan/EDTA tubes (Venoject, Terumo Europe, Leuven, Belgium). The plasma was collected immediately by centrifugation at 2000 g for 15 min. at 4° C. unless otherwise indicated. The plasma samples were either processed immediately for analysis or snap frozen in liquid nitrogen and stored at -70° C. Frozen samples were thawed at 4° C. and processed as described in the text.
(§2) Equal volumes of the plasma sample and the precipitating reagent supplied in the Biotrak RIA kits were mixed by thorough agitation and incubated at rt. for 5 min. The mixture was then centrifuged at 2500 g for 15 min. at 4° C. The supernatant from each sample tube was collected for analysis in the RIA assay. A 50 μl aliquot of the original or diluted supernatant was mixed with 50 μl of the Biotrak assay buffer in a 12×75 mm polypropylene tube. The I^125 labeled C3a or C4a and the specific antibody solutions (50 μl each from the kit) were added and incubated at rt. for 30 min. (for antibody to C3a, C4a, C5a and des Arg derivatives thereof, see Hugli et al. (1975) J. Biol. Chem. 250:1472-1478; Hugli (1975) J. Biol. Chem. 250:8293; and Hugli et al. (1981) J. Biol. Chem. 256:2685-2692). A 50 μl aliquot of the second antibody (goat anti-rabbit) was added to the tube and the mixture incubated for an additional 30 min. at rt. Two ml of isotonic saline was added and the tube was centrifuged at 2000 g for 10 min. at 4° C. to pellet the antigen-antibody complexes. The supernatant in the tubes was decanted and the tubes were counted for 1 min. in a Cobra Auto-gamma Model 5002 (Packard Instrument Co., Meriden, Conn.) scintillation counter. Analysis of each sample was performed in duplicate. Data was analyzed using RiaSmart software supplied by Packard Instruments and installed in the Cobra Auto-gamma counter.
Blood from a normal donor was drawn into EDTA and 0 to 0.2 mg/ml Futhan was added over time indicated. Plasma was recovered within 30 min. of being drawn and a precipitating agent was added to the 0 time plasma sample (EDTA/p10) to prevent further C-activation. An EDTA/Futhan plasma sample (EDTA/p1) and an EDTA/Futhan blood sample (EDTA/b1) were stored for 1 hr. at 22° C. A separate set of EDTA/Futhan plasma samples were either stored at 4° C. for 24 hr (EDTA/p4) or frozen at -70° C. for 24 hr (EDTA/pF) and then thawed for analysis. C3a and C4a levels were determined using a radioimmunoassay procedure.
Whole blood from a normal donor was drawn into 0.15 mM benzamidine, 20 μM Trasylol or 0.1 mg/ml Futhan and processed either immediately (0 time) or after 60 min. at rt, and then analyzed for C3a and C4a.
In this experiment, whole EDTA (0.5 mg/ml) blood from a normal donor was incubated at 4° C. with and without 0.1 mg/ml Futhan added. The C3a and C4a levels were determined versus time over 23-hr.
Complement activation in EDTA plasma was compared with activation in EDTA/Futhan plasma at room temperature (22-24° C.) over a period of one hour (experiment 3A). […] All blood samples were drawn into EDTA, with and without 0.1 mg/ml Futhan present, and the plasma was collected (see Materials and Methods) and frozen at -70° C. These samples were thawed at 4° C. and analyzed after 0 and 60 min. at rt.

[2] = system: in vitro complement activation (C3 and C4 conversion; MASP-2); assay: in vitro complement activation (C3a and C4a by RIA) in plasma of liver transplant patients; type: biochemical, human
Description: Blood from nineteen liver transplant patients was collected in 0.1 mg/ml Futhan and 0.5 mg/ml EDTA. The C3a and C4a levels were measured at 0 time and after 1 hr at room temperature. These samples were obtained during routine visits by the patients having no signs of acute rejection episodes.
Blood samples of 5-10 ml were drawn from normal donors, liver transplant and SLE (lupus) patients under an approved Human Subjects protocol #96-293 and all individuals were asked to sign an informed consent form agreeing to be voluntary donors. Normal donors were a random group of male and female individuals between the ages of 27-48. Liver transplant patients were selected from a group of patients being routinely followed at The Scripps Clinic Foundation by Dr. John Brems. None of these organ transplant patients were experiencing acute rejection episodes at the time that the blood was drawn.
as §1, §2
C3a and C4a generation was examined in EDTA plasma of liver transplant patients (average values, n=19) with and without […] Futhan present. These subjects were stable transplant patients not undergoing a clinically detectable rejection episode.

Factor Xa = settings: Hitomi et al. (1985); cited from earlier work
Hageman factor = settings: Hitomi et al. (1985); cited from earlier work
[3] = system: acute rejection episode in liver transplant patients; assay: treatment of rejection episodes in liver transplant patients; type: in vivo, human; settings: two 1 g (I.V.) doses
Source text: Blood and urine samples were collected over a period of two years from 63 liver transplant patients during routine post-operative clinical visits. The patients' identities were concealed and no selection process or attempt was made to recruit patients for any other reason than that they had undergone orthotopic liver transplantation at The Scripps Clinic and Research Foundation. Immunosuppression was initiated with a regimen of cyclosporine A (CsA), azathioprine and steroids. Treatment for some of these patients was switched to FK506, but none was treated with OKT3. Patients were seen weekly in the outpatient transplant clinic after transplantation until their liver function tests stabilized. […] Measurement of the relevant clinical parameters was obtained during each visit. Liver biopsies were obtained whenever there was an abnormality in liver function tests.

[4] = normal donor, listed as benzamidine
[5] = n=20, stored at 4° C. for 24 hours
[6] = normal plasma, n = 20, processed immediately at rt, total data set
[7] = normal plasma, processed immediately at rt, values outside ± 2σ eliminated
[8] = Table III samples, plasma processed immediately

## N=C(N)c1ccccc1 [Benzamidine, benzamidine]
[1]
  MASP activity: does not inhibit MASP activity
[1]; normal donor
  C4 conversion in blood, additive combined with EDTA: extensive conversion of C4 occurred
  C4 conversion (C4a generation) in whole blood: relatively effective in preventing C4 conversion
  C3a generation in whole blood: failed to prevent C3a generation
[1]; [4]
  C4 conversion in blood, additive combined with EDTA: high levels of C4a are generated
  C4 conversion (C4a generation) in whole blood: no C4a generated in whole blood

## O=C(O)CN(CCN(CC(=O)O)CC(=O)O)CC(=O)O [EDTA, ethylenediaminetetraacetic acid]
[1]; Table II, line III
  activity of the Lectin Pathway in EDTA plasma: IN VITRO
[1]; n=11, average, rt
  C4a elevation over 60 min in normal plasma: 3-4 fold
[1]; n=11, frozen at -70° C., thawed at 4° C., 0 min at rt (experiment 3A)
  C4a level in normal plasma at 0 time: 242 ± 95 ng/mL
[1]; n=11, frozen at -70° C., thawed at 4° C., 60 min at rt (experiment 3A)
  C4a level in normal plasma after 60 min: 768 ± 392 ng/mL
[1]; [5]
  C3a values in normal plasma: 0.60 ± 0.026 µg/mL
  C4a levels in normal plasma: 0.32 ± 0.017 µg/mL
[1]; normal donor, EDTA 0.5 mg/ml, after 23 hr
  C4a level in whole blood at 4° C., end: more than 1700 ng/ml
[1]; normal donor, EDTA 0.5 mg/ml, start of 23-hr period
  C4a level in whole blood at 4° C., start: 300 ng/mL
[1]; normal plasma, n = 20, EDTA 1 mg/ml or Futhan 0.2 mg/ml and EDTA, processed immediately at rt, total data set
  C3a, mean ± standard deviation, data set I: 599 ± 263 ng/mL
[1]; [6]
  C3a, range of values, data set I: 349 to 1344 ng/mL
  C4a, mean ± standard deviation, data set I: 316 ± 169 ng/mL
  C4a, range of values, data set I: 130 to 774 ng/mL
[1]; [7]
  C3a, mean ± standard deviation, data set II: 484 ± 110 ng/mL
  C3a, range of values, data set II: 349 to 722 ng/mL
  C4a, mean ± standard deviation, data set II: 268 ± 95 ng/mL
  C4a, range of values, data set II: 130 to 433 ng/mL
[1]; normal whole blood (FIG. 2)
  C3 conversion when EDTA was added to the blood: virtually no C3 was converted
  C4 conversion when EDTA was added to the blood: remarkable increase in C4 conversion
[1]; over 23 hr
  C3a levels in whole blood at 4° C. versus time, relative to Futhan/EDTA blood: only slightly higher
[1]; over a 27-hr period
  C3a generation in normal blood at 4° C.: sufficient to prevent C3a generation
[2]; n=19, average
  C4a in liver transplant patient plasma after 60 min at rt: 16.9 µg/mL
  C4a in liver transplant patient plasma at 0 time: 4.02 µg/mL
[2]; n=19, average (experiment 3B)
  C4a level in liver transplant patient plasma at 0 time: 4020 ± 6100 ng/mL

## CS(=O)(=O)O.CS(=O)(=O)O.N=C(N)Nc1ccc(C(=O)Oc2ccc3cc(C(=N)N)ccc3c2)cc1 [Futhan, 6-amidino-2-naphthyl-p-guanidinobenzoate dimethanesulfonate]
[1]; 0.01 mg/ml Futhan, dimethanesulfonate
  C4 conversion / C-activation versus time in normal EDTA plasma: measurable reduction in C4 conversion; also recorded: effective in protecting normal plasma from C-activation
[1]; 0.10 mg/ml Futhan, over a 24-hour period
  C4 cleavage in normal EDTA plasma: virtually eliminated C4 cleavage
[1]; 0.2 mg/ml Futhan, compared with lower Futhan levels (experiment 1)
  C3a levels in EDTA samples: somewhat higher
[1]; Futhan added (experiment 1)
  activation of C4 in normal EDTA plasma: abolished
[1]; Table II, line IV
  activity of all pathways with Futhan (Futhan/EDTA): NO IN VITRO C-ACTIVATION
[1]; [8]
  reduction in C3a levels by addition of Futhan: no significant reduction
  reduction in C4a levels by addition of Futhan: only marginal reduction
[1]
  MASP activity: inhibits MASP
[1]; n=11, 0.1 mg/ml Futhan, rt, one hour (experiment 3A)
  C3a and C4a generation in EDTA plasma from normal donors: effectively inhibited
[1]; normal donor, dimethanesulfonate
  C4 conversion in blood, additive combined with EDTA: fully effective; also recorded: fully blocked in vitro C-activation
[1]; normal donor
  C3a generation in whole blood: effective inhibitor
[1]; stored 24 hr on ice or frozen and thawed
  generation of C3a or C4a in stored samples: minimal generation of either C3a or C4a
[1]; with or without EDTA, up to one hour at room temperature (FIG. 2)
  stabilizing C3 and C4 in normal whole blood: effective in stabilizing C3 and C4
[2]; 60 min at room temperature (experiment 3B)
  time-dependent C3a and C4a elevation in patient EDTA plasma: effectively prevented
[2]; nineteen patients, 0.1 mg/ml Futhan and 0.5 mg/ml EDTA
  levels of C3a and C4a after 1 hr of incubation at rt: unchanged in most samples
[2]; transplant patients
  C4 converting activity in EDTA plasma: fully inhibitable
Factor Xa
  effective inhibitory level toward Factor Xa: sub-micromolar level
Hageman factor
  effective inhibitory level toward Hageman factor: sub-micromolar level

## C[C@H]1C[C@@H]2[C@H]([C@@H](O)C[C@@]3(C)[C@H]2CC[C@]3(O)C(=O)CO)[C@@]2(C)C=CC(=O)C=C12 [methylprednisolone]
[3]
  course of the rejection episode after treatment: resolved rapidly
